Reference: patent US20210267996A1, “Compounds for inhibition of inflammation” (Children`s Medical Center Corporation, priority 2018, published 2021)
“Also recorded” adds a separate entry of the source.

What was measured:
THP-1 cells = test: Canonical inflammasome pyroptosis, LPS-primed THP-1 cells plus nigericin; format: cell-based, human; conditions: THP-1, nigericin
ASC specks = test: ASC speck formation in LPS-primed THP-1 cells plus nigericin; format: cell-based, human; conditions: 30 μM, 1 hr before nigericin
Method: (§1) Immunostaining and confocal microscopy: cells grown on coverslips were fixed for 15 min with 4% paraformaldehyde in PBS, permeabilized for 5 min in 0.1% Triton X-100 in PBS and blocked using 5% BSA for 1 hr. Then, cells were stained with the indicated primary antibodies followed by incubation with fluorescent-conjugated secondary antibodies (Jackson ImmunoResearch). Nuclei were counterstained with DAPI (4,6-diamidino-2-phenylindole) (Sigma-Aldrich). Slides were mounted using Aqua-Poly/Mount (Dako). Images were captured using a laser scanning confocal microscope (Olympus Fluoview FV1000 Confocal System) with a 63× water immersion objective and Olympus Fluoview software (Olympus). All confocal images are representative of three independent experiments.
Nigericin activates the assembly of the NLRP3 canonical inflammasome using an adaptor called apoptosis-associated speck-like protein containing a caspase recruitment domain (ASC), which can be visualized in immunofluorescent microscopy as specks. When LPS-primed THP-1 cells were treated with nigericin in the absence of inhibitors, ASC specks were detected in 30% of cells (FIG. 36). As expected, speck formation was not inhibited by z-VAD-fmk, since caspase activation occurs downstream of inflammasome assembly.
(§2) Cell death was determined by CytoTox96 assay. […] Cell death was determined by CytoTox96 assay. […] Shown are immunoblots of whole cell lysates harvested 0.5 hr later. […] Representative images of ASC specks (arrowheads) and mean±s.d. percent of cells with ASC specks analyzed 20 min later (FIG. 47). Whole cell lysates (WCL) and culture supernatants (Sup) were harvested 30 min after adding nigericin and immunoblotted with the indicated antibodies (FIG. 50). Caspase-1 activity was assayed 30 min after adding nigericin using a cell-permeable fluorescence dye FAM-YVAD-FMK (FIG. 52). […] Representative images of ASC specks (arrowheads) and mean±s.d. percent of cells with ASC specks analyzed 20 min later (FIGS. 48 and 49). Whole cell lysates (WCL) and culture supernatants (Sup), harvested 30 min after adding nigericin, were analyzed by immunoblot (FIG. 51). […] The Figures show representative confocal microscopy images and quantification of proportion of cells with GSDMD membrane staining and pyroptotic bubbles. Arrows indicate GSDMD staining of pyroptotic bubbles. […] FIGS. 57 and 58, dose response curve of the effect of Bay 11-7082 on caspase-1 (FIG. 57) and caspase-11 (FIG. 58) activity against a fluorescent peptide substrate. […] (FIG. 60). FIGS. 61 and 62 show dose response curve of the effect of Bay 11-7082 on liposome leakage induced by 0.3 μM human GSDMD-3C (FIG. 61) or mouse GSDMA3-3C (FIG. 62) plus 0.15 μM 3C protease. […] 2-fold dilutions of Bay 11-7082 from 5-40 μM were used. Graphs show the mean±s.d; data are representative of three independent experiments. *P<0.05, **P<0.01.

[1] = tested on: caspase-1, GSDMD, and pro-IL-1β; test: Caspase-1, GSDMD, pro-IL-1β cleavage and IL-1β secretion by immunoblot, THP-1; format: cell-based, human; conditions: 30 μM
Method: Immunoblot analysis: cell extracts were prepared using RIPA buffer (50 mM Tris-HCl pH 7.4, 150 mM NaCl, 1 mM EDTA, 1% Triton X-100, 0.1% SDS, 0.5% deoxycholate) supplemented with a complete protease inhibitor cocktail (Roche) and a PhosSTOP phosphatase inhibitor cocktail (Roche). Samples were subjected to SDS-PAGE and the resolved proteins were then transferred to a PVDF membrane (Millipore). Immunoblots were probed with indicated antibodies and visualized using a SuperSignal West Pico chemiluminescence ECL kit (Pierce).
To assess which steps in NLRP3-mediated inflammation were inhibited post ASC speck formation, LPS-primed THP-1 cells were treated with vehicle or 30 μM z-VAD-fmk, disulfiram or Bay 11-7082 1 hr before adding nigericin, and cleavage and activation of caspase-1, GSDMD, and pro-IL-1β were analysed by immunoblot of whole cell lysates 30 min later (FIG. 50). Secretion of processed IL-1β was also assessed by immunoblot of culture supernatants. […] Because immunoblots are not quantitative, caspase-1 activity 30 min after adding nigericin was also assessed using a fluorescent substrate in intact cells. […] Next, the effect of z-VAD-fmk, disulfiram and Bay 11-7082 on LPS+nigericin-induced GSDMD pore formation was assessed by immunofluorescence microscopy using a monoclonal antibody that was generated that recognizes both uncleaved GSDMD and its pore form (FIGS. 53, 54, and 64-66). In the absence of any inhibitor, the GSDMD antibody stained both the cytosol and the plasma membrane of LPS plus nigericin treated cells, which formed characteristic pyroptotic bubbles (See Reference 10). […] Thus, disulfiram and Bay 11-7082 inhibit multiple steps leading to canonical inflammasome-induced pyroptosis and inflammatory cytokine release, including priming, inflammasome assembly, inflammatory caspase activation, pro-inflammatory cytokine processing and GSDMD pore formation.
as §2
Canonical inflammasome assembly activates caspase-1, which cleaves pro-IL-1β and GSDMD, and the latter is needed to release processed IL-1β and to induce pyroptosis. […]

caspase-1 = test: Caspase-1 activity assay in cells (FAM-YVAD-FMK); format: cell-based, human; conditions: 30 μM, 30 min after nigericin
Method: Caspase-1 activity assay in cells: to measure caspase-1 activation, THP-1 cells were seeded into 96-well plates and differentiated with PMA. After the indicated treatments, cells were incubated with a fluorescent active caspase-1 substrate FAM-YVAD-FMK (Immunochemistry Technologies). Samples were read on a BioTek Synergy 2 plate reader.
as §2

GSDMD pore formation = test: GSDMD membrane staining and pyroptotic bubbles, immunofluorescence; format: cell-based, human; conditions: 30 μM, 30 min after nigericin
Method: as §1
To assess which steps in NLRP3-mediated inflammation were inhibited post ASC speck formation, LPS-primed THP-1 cells were treated with vehicle or 30 μM z-VAD-fmk, disulfiram or Bay 11-7082 1 hr before adding nigericin, and cleavage and activation of caspase-1, GSDMD, and pro-IL-1β were analysed by immunoblot of whole cell lysates 30 min later (FIG. 50). Secretion of processed IL-1β was also assessed by immunoblot of culture supernatants. […] Because immunoblots are not quantitative, caspase-1 activity 30 min after adding nigericin was also assessed using a fluorescent substrate in intact cells. […] Next, the effect of z-VAD-fmk, disulfiram and Bay 11-7082 on LPS+nigericin-induced GSDMD pore formation was assessed by immunofluorescence microscopy using a monoclonal antibody that was generated that recognizes both uncleaved GSDMD and its pore form (FIGS. 53, 54, and 64-66). […]
Cell death was determined by CytoTox96 assay. […] Cell death was determined by CytoTox96 assay. […] Representative images of ASC specks (arrowheads) and mean±s.d. percent of cells with ASC specks analyzed 20 min later (FIG. 47). […] Caspase-1 activity was assayed 30 min after adding nigericin using a cell-permeable fluorescence dye FAM-YVAD-FMK (FIG. 52). […]

mouse iBMDMs = test: Processing of caspase-1, GSDMD and IL-1β in iBMDMs (immunoblot); format: cell-based; conditions: 1 hr time point
Method: (§3) FIG. 97 contains a bar graph showing results of an experiment where LPS-primed THP-1 cells, after medium removal, were incubated with probe FAM-YVAD-FMK in FLICA assay buffer for another 0.5 hr before fluorescence reading. iBMDMs were pretreated with disulfiram, Bay 11-7082, necrosulfonamide (NSA) or z-VAD-fmk for 1 hr before treated or not with Nigericin for 0.5 hr. Whole cell lysates and culture supernatants were immunoblotted with the indicated antibodies.
as §3, with “FIG. 98” for “FIG. 97”, “for 1” for “for 0.5”
Canonical inflammasome assembly activates caspase-1, which cleaves pro-IL-1β and GSDMD, and the latter is needed to release processed IL-1β and to induce pyroptosis. To assess which steps in NLRP3-mediated inflammation were inhibited post ASC speck formation, LPS-primed THP-1 cells were treated with vehicle, 30 μM z-VAD-fmk or disulfiram 1 hour before adding nigericin, and cleavage and activation of caspase-1, GSDMD, and pro-IL-1β were analysed by immunoblot of whole cell lysates 30 min later and 1 hr later. Secretion of processed IL-1β was also assessed by immunoblot of culture supernatants. […] The 1 hr time point is relevant as the cell death and IL-1β release measurements used cells stimulated with nigericin for 1 and 2 hrs, respectively.

processing of caspase-1, GSDMD and pro-IL-1β ([1]; 60 min after nigericin): still showed little cleavage
processing of caspase-1, GSDMD and IL-1β (mouse iBMDMs): still inhibited processing
SMILES: COC(=O)C[C@@H](C(=O)CF)N(C(=O)[C@@H](NC(=O)OCc1ccccc1)C(C)C)[C@@H](C)C(N)=O [z-VAD-fmk]
inhibition of canonical inflammasome pyroptosis (THP-1 cells): inhibits the canonical inflammasome pathway
ASC speck formation (ASC specks): not inhibited
processed IL-1β in culture supernatants [1]: only detected in the culture supernatants in the absence of any inhibitor; also recorded: only detected in culture supernatants in the absence of either inhibitor
caspase-1, GSDMD and pro-IL-1β cleavage ([1]; 30 min after nigericin): dramatically reduced; also recorded: processing was reduced
caspase-1 activity in intact cells (caspase-1): completely inhibited
GSDMD membrane staining and pyroptotic bubbles (GSDMD pore formation): completely blocked
